≈ marks a conversion by molar mass, not a printed value. Residues, ends and D or L forms follow the SMILES beside them.
Columns and labels:
S. mutans = test: Time-kill assay; assay type: cell-based, Streptococcus mutans; details: 0.12%, 10^6 CFU/mL, CFU counts
Procedure: The time-kill kinetics of HBAMP against S. mutans was determined by time-kill assay as previously described. S. mutans was grown to exponential phase and diluted to 10^6 CFU/mL in growth medium. […] Bacterial suspension in other tubes that were added with 0.12% CHX and PBS served as the positive and blank control groups, respectively. At time points of 0, 10, 20, 30, 40, 60, and 90 min, 10 μL of cell suspension was collected, serially diluted in PBS and then 50 μL of aliquots were plated onto BHI agar plates. Colony forming units were counted after the plates were incubated anaerobically at 37 °C for 24 h.

[1] = system: Actinomyces viscosus (ATCC 19246); assay type: cell-based; details: ATCC 19246, 24 h
Procedure: (§1) Streptococcus sanguinis (ATCC 10556), Actinomyces viscosus (ATCC 19246), Streptococcus mutans (ATCC 25175), were grown in Brain Heart Infusion (BHI; Difco, Detroit, MI, USA) culture medium. Lactobacillus acidophilus (ATCC 4356) was grown in de Man, Rogosa and Sharpe (MRS; Difco, Detroit, MI, USA) culture medium. BHIS (BHI with 2% sucrose) was used for growing S. mutans biofilm. All cultures were grown anaerobically (80% N2, 10% H2 and 10% CO2) at 37 °C. According to the growth curve of bacteria, the exponentially growing cells were harvested by centrifugation and diluted in BHI or MRS to 10^6 CFU/mL based on a regression line derived from McFarland turbidity standards (Pro-Lab Diagnostics, Richmond Hill, ON, Canada).
(§2) MIC and MBC assays were conducted according to the consensus guidelines developed by the Clinical and Laboratory Standards Institute (CLSI)[24]. Two-fold serial dilutions of peptides were prepared in culture medium at a volume of 200 μl/well in 96-well plates and the final concentrations of peptides ranged from 31.25 μg/ml to 2000 μg/ml. Chlorhexidine (0.12%) and culture medium were included as the positive and control group, respectively. Then each well was seeded with 20 μL of bacterial cell suspension (10^6 CFU/mL). The plates were incubated anaerobically at 37 °C for 24 h. The MIC was defined as the lowest concentration of peptide that prevents visible growth of the bacteria tested. […] The MBC was defined as the lowest concentration of peptide resulting in no colony formation on agar plates. All determinations were made from triplicate experiments.

[2] = system: Streptococcus sanguinis (ATCC 10556); assay type: cell-based; details: ATCC 10556, 24 h
Procedure: as §1, §2

[3] = system: Streptococcus mutans (ATCC 25175); assay type: cell-based; details: ATCC 25175, 24 h
Procedure: as §1, §2

[4] = system: Lactobacillus acidophilus (ATCC 4356); assay type: cell-based; details: ATCC 4356, 24 h
Procedure: as §1, §2

S. mutans biofilm = assay type: cell-based; details: 250 μg/ml (2× MIC), 10 min treatment of 12 h biofilm on HAp
Procedure: S. mutans biofilms were grown on the surface of HAp disks that were placed in 24-well plate. Each well of the plate was inoculated with 2 ml of S. mutans in BHIS (10^6 CFU/mL). After incubation anaerobically at 37 °C for 12 h, the HAp disks were washed twice with sterile deionized water and then respectively treated with HBAMP (2× and 4× MIC) and CHX (0.12%) for 10 min. Then biofilms were stained for 20 min in the dark using the LIVE/DEAD® BacLight^TM Bacterial Viability Kit. The biofilm without treatment served as control. Stained biofilms were photographed by CLSM with a 20× objective. Three independent biofilm experiments were performed.

in vitro = in vitro ADME; details: both sexes, human, cerebrospinal or other body fluid
Procedure: The protocols in this section were approved by the Ethics Committee of Zhongshan Hospital, Xiamen University. The methods employed were performed in accordance with the approved guidelines. After acquiring informed consent, human saliva was collected from individual volunteers (two males and two females; Minimum age: 22; maximum age: 28) in the morning prior to oral cleaning. The collected saliva samples were centrifuged at 12,000 rpm for 20 min. The supernatant was collected and filtered through the […] membrane filter to remove any debris. HBAMP was added into the human saliva to achieve the final concentration of 500 μg/ml. The saliva with HBAMP was incubated at 37 °C. At 0, 5, 20 and 60 min, 1 ml samples were taken from the total sample and served in the specific sample bottles, the machine will automatically extract samples from the bottles to detect. The samples were analysed by reversed-phase HPLC using Zorbax Eclipse XDB-C18 analytical column (150 × 4.6 mm, Agilent Technologies, Inc., Santa Clara, CA, USA) protected by a XDB-C18 guard column (4 × 4 mm). For the elution of HBAMP, a flow rate of 1.2 mL/min and a linear gradient from 88:12 to 65:35 (0.1% TFA in water: 0.1% TFA in acetonitrile) for 10 min were employed. Total run time of HPLC-UV (215 nm) analysis was 15 min and the injection volume was set at 40 μL.

Question: For `[H]/N=C(\N/C(=N/[H])NCCCCCCNC(=N)NC(=N)Nc1ccc(Cl)cc1)Nc1ccc(Cl)cc1` [CHX, chlorhexidine], which “time to kill S. mutans” value (S. mutans) is on record?
Answer: ≤ 10 min

Question: With `CC(C)[C@H](NC(=O)[C@H](Cc1c[nH]c2ccccc12)NC(=O)[C@H](Cc1ccccc1)NC(=O)[C@@H](NC(=O)[C@@H](NC(=O)[C@H](CCCCN)NC(=O)[C@@H](N)CCCCN)C(C)C)C(C)C)C(=O)N[C@@H](CCCCN)C(=O)N[C@@H](Cc1ccccc1)C(=O)N[C@@H](CCCCN)C(=O)O` [KSLW, reference compound] (H-KKVVFWVKFK-OH) as the molecule, how does the “MBC, A. viscosus” value [1] read?
Answer: 500 µg/mL (≈ 382 µM)

Question: What about the “MIC, A. viscosus” value [1] of the same molecule?
Answer: 125 µg/mL (≈ 95.5 µM)

Question: What about the “MBC, S. sanguinis” value [2] of the same molecule?
Answer: 2000 µg/mL (≈ 1530 µM)

Question: What about the “MIC, S. sanguinis” value [2] of the same molecule?
Answer: 250 µg/mL (≈ 191 µM)

Question: What about the “MBC, S. mutans” value [3] of the same molecule?
Answer: 125 µg/mL (≈ 95.5 µM)

Question: What about the “MIC, S. mutans” value [3] of the same molecule?
Answer: 62.5 µg/mL (≈ 47.8 µM)

Question: And the “MBC, L. acidophilus” value [4]?
Answer: 125 µg/mL (≈ 95.5 µM)

Question: What about the “MIC, L. acidophilus” value [4] of the same molecule?
Answer: 62.5 µg/mL (≈ 47.8 µM)

Question: For `CC(C)C[C@H](NC(=O)[C@H](Cc1ccc(O)cc1)NC(=O)[C@H](Cc1c[nH]cn1)NC(=O)[C@H](CC(N)=O)NC(=O)[C@@H](N)CC(N)=O)C(=O)N1CCC[C@H]1C(=O)N[C@@H](CCCNC(=N)N)C(=O)NCC(=O)NCC(=O)NCC(=O)N[C@@H](CCCCN)C(=O)N[C@@H](CCCCN)C(=O)N[C@H](C(=O)N[C@H](C(=O)N[C@@H](Cc1ccccc1)C(=O)N[C@@H](Cc1c[nH]c2ccccc12)C(=O)N[C@H](C(=O)N[C@@H](CCCCN)C(=O)N[C@@H](Cc1ccccc1)C(=O)N[C@@H](CCCCN)C(=O)O)C(C)C)C(C)C)C(C)C` [HBAMP] (H-NNHYLPRGGGKKVVFWVKFK-OH), which “MBC, A. viscosus” value [1] is on record?
Answer: 500 µg/mL (≈ 211 µM)

Question: What about the “MIC, A. viscosus” value [1] of the same molecule?
Answer: 250 µg/mL (≈ 105 µM)

Question: What about the “MBC, S. sanguinis” value [2] of the same molecule?
Answer: 2000 µg/mL (≈ 842 µM)

Question: And the “MIC, S. sanguinis” value [2]?
Answer: 500 µg/mL (≈ 211 µM)

Question: What about the “MBC, S. mutans” value [3] of the same molecule?
Answer: 250 µg/mL (≈ 105 µM)

Question: And the “MIC, S. mutans” value [3]?
Answer: 125 µg/mL (≈ 52.6 µM)

Question: What about the “MBC, L. acidophilus” value [4] of the same molecule?
Answer: 250 µg/mL (≈ 105 µM)

Question: And the “MIC, L. acidophilus” value [4]?
Answer: 125 µg/mL (≈ 52.6 µM)

Question: And the “bacteria killed in S. mutans biofilm” value (S. mutans biofilm)?
Answer: approximately 44.7%

Question: What about the remaining at 1 h, 500 μg/ml (in vitro) of the same molecule?
Answer: 80.5%

From PMC5133556, “Design of a hydroxyapatite-binding antimicrobial peptide with improved retention and antibacterial efficacy for oral pathogen control” (Scientific Reports, 2016)
